Results on 18 compounds are retold here after US20240059698A1 (Accutar Biotechnology Inc., priority 2022, published 2024).

For orientation: GI50 means the concentration at which growth is held to half of that of the control.

Each structure is given as a SMILES string.

Holding throughout (format): cell-based
The subject of assay [1] is HCC827 cells. The assay can be described thus: Cell growth inhibition (CellTiter-Glo), HCC827. To be noted: Homo sapiens, 72 h, 3 days. The procedure, abridged:
(§1)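 Readout was CellTiter-Glo luminescence after 3-day compound treatment at 37° C. Cells were seeded at 5000/well the previous night: HCC827 in RPMI/10% FBS, A431 in DMEM/10% FBS.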
In general terms: Cellular ATP, detected with luciferase, serves as a proxy for viable cell number.

Assay [2] has as its system HCC827-YVMA cells (human ERBB2 exon20 insertion mutant A775_G776ins YVMA). The assay can be described thus: Cell growth inhibition (CellTiter-Glo), HCC827-YVMA. To be noted: 72 h, HCC827-YVMA cells, 3 days, CellTiter-Glo, read-out: Cell growth inhibition, GI50 (nM) HCC827-YVMA. In outline:
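Growth in RPMI with 10% FBS was measured by CellTiter-Glo luminescence after 3 days at 37 °C with test compounds across a concentration range. The single-clone HCC827 lines carry a lentiviral YVMA (ERBB2) or ASV (EGFR) exon 20 insertion, with endogenous EGFR removed via sgRNA/Cas9.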

Assay [3] concerns A431 cells. The assay can be described thus: Cell growth inhibition (CellTiter-Glo), A431. To be noted: Homo sapiens, A-431, 72 h, 3 days. The procedure, abridged: as §1
The subject of assay [4] is HCC827-SVD cells (human EGFR exon 20 insertion mutant D770_N771insSVD). The assay can be described thus: Cell growth inhibition (CellTiter-Glo), HCC827-SVD. To be noted: 72 h, 3 days. The procedure, abridged:
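Growth read by CellTiter-Glo luminescence after 3-day compound exposure at 37 °C. Engineered clonal HCC827 line (native EGFR deleted by CRISPR, mutant EGFR re-expressed) plated at 5000 cells/well in 10% FBS RPMI the night before dosing.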

Turning to `C=CC(=O)N1CCC(c2n[nH]c3ncnc(Nc4ccc(Oc5ccnc(N6C[C@H](OC)[C@H](OC)C6)c5)cc4F)c23)CC1` [Compound 176, 1-(4-(4-((4-((2-((3S,4R)-3,4-dimethoxypyrrolidin-1-yl)pyridin-4-yl)oxy)-2-fluorophenyl)amino)-1H-pyrazolo[3,4-d]pyrimidin-3-yl)piperidin-1-yl)prop-2-en-1-one], the concentration for 50% growth inhibition (GI50) in assay [1] is above 1000 nM; in assay [2] it was 200 to 1000 nM; in assay [3], above 1000 nM; in assay [4], 200 to 1000 nM.
Take `C=CC(=O)N1CCC(c2n[nH]c3ncnc(Nc4ccc(Oc5ccnc(N6CC(C)(OC)C6)c5)cc4F)c23)CC1` [Compound 178, 1-(4-(4-((2-fluoro-4-((2-(3-methoxy-3-methylazetidin-1-yl)pyridin-4-yl)oxy)phenyl)amino)-1H-pyrazolo[3,4-d]pyrimidin-3-yl)piperidin-1-yl)prop-2-en-1-one]: the GI50 in assay [1] was above 1000 nM; in assay [2] it was 50 to 200 nM; in assay [3], above 1000 nM; in assay [4], 200 to 1000 nM.
For the compound `C=CC(=O)N1CCC(c2n[nH]c3ncnc(Nc4ccc(Oc5ccnc(N6CCC(C#N)C6)c5)cc4F)c23)CC1` (stereo not drawn) [Compound 179, 1-(4-(4-((3-(1-acryloylpiperidin-4-yl)-1H-pyrazolo[3,4-d]pyrimidin-4-yl)amino)-3-fluorophenoxy)pyridin-2-yl)pyrrolidine-3-carbonitrile], the 50% growth inhibitory concentration (GI50) is above 1000 nM in assay [1], 200 to 1000 nM in assay [2], above 1000 nM in assay [3] and 200 to 1000 nM in assay [4].
On to `C=CC(=O)N1CCC(c2n[nH]c3ncnc(Nc4ccc(Oc5ccnc(N6CC7(CCOCC7)C6)c5)cc4F)c23)CC1` [Compound 181, 1-(4-(4-((4-((2-(7-oxa-2-azaspiro[3.5]nonan-2-yl)pyridin-4-yl)oxy)-2-fluorophenyl)amino)-1H-pyrazolo[3,4-d]pyrimidin-3-yl)piperidin-1-yl)prop-2-en-1-one], for which the concentration for 50% growth inhibition (GI50) in assay [1] is above 1000 nM; in assay [2] it was 50 to 200 nM; in assay [3] it was above 1000 nM; in assay [4] it was 50 to 200 nM.
With `C=CC(=O)N1CCC(c2n[nH]c3ncnc(Nc4ccc(Oc5ccnc(NC(=O)C(C)C)c5)cc4F)c23)CC1` [Compound 182, N-(4-(4-((3-(1-acryloylpiperidin-4-yl)-1H-pyrazolo[3,4-d]pyrimidin-4-yl)amino)-3-fluorophenoxy)pyridin-2-yl)isobutyramide], the GI50 in assay [1] was above 1000 nM; in assay [2], 50 to 200 nM; in assay [3] it was above 1000 nM; in assay [4], 50 to 200 nM.
On to `C=CC(=O)N1CCC(c2n[nH]c3ncnc(Nc4ccc(Oc5ccn(S(=O)(=O)C(C)C)n5)cc4F)c23)CC1` [Compound 183, 1-(4-(4-((2-fluoro-4-((1-(isopropylsulfonyl)-1H-pyrazol-3-yl)oxy)phenyl)amino)-1H-pyrazolo[3,4-d]pyrimidin-3-yl)piperidin-1-yl)prop-2-en-1-one], for which the 50% growth inhibitory concentration (GI50) in assay [1] is 200 to 1000 nM; in assay [2] it was 200 to 1000 nM; in assay [3] it was above 1000 nM; in assay [4], 200 to 1000 nM.
Regarding `C=CC(=O)N1CCC(c2n[nH]c3ncnc(Nc4ccc(Oc5ccnc(C(=O)NC)c5)cc4F)c23)CC1` [Compound 184, 4-(4-((3-(1-acryloylpiperidin-4-yl)-1H-pyrazolo[3,4-d]pyrimidin-4-yl)amino)-3-fluorophenoxy)-N-methylpicolinamide], the concentration for 50% growth inhibition (GI50) was above 1000 nM in assay [1], 200 to 1000 nM in assay [2], above 1000 nM in assay [3] and above 1000 nM in assay [4].
As to `C=CC(=O)N1CCC(c2n[nH]c3ncnc(Nc4ccc(O[C@H]5CCCN(S(=O)(=O)c6cccs6)C5)cc4F)c23)CC1` [Compound 186, (S)-1-(4-(4-((2-fluoro-4-((1-(thiophen-2-ylsulfonyl)piperidin-3-yl)oxy)phenyl)amino)-1H-pyrazolo[3,4-d]pyrimidin-3-yl)piperidin-1-yl)prop-2-en-1-one], the 50% growth inhibitory concentration (GI50) in assay [1] is 200 to 1000 nM; in assay [2], 50 to 200 nM; in assay [3], above 1000 nM; in assay [4], 200 to 1000 nM.
On to `C=CC(=O)N1CCC(c2n[nH]c3ncnc(Nc4ccc(O[C@H]5CCCN(S(=O)(=O)c6ccc(OC)nc6)C5)cc4F)c23)CC1` [Compound 187, (S)-1-(4-(4-((2-fluoro-4-((1-((6-methoxypyridin-3-yl)sulfonyl)piperidin-3-yl)oxy)phenyl)amino)-1H-pyrazolo[3,4-d]pyrimidin-3-yl)piperidin-1-yl)prop-2-en-1-one], for which the 50% growth inhibitory concentration (GI50) in assay [1] was 200 to 1000 nM; in assay [2], 200 to 1000 nM; in assay [3], above 1000 nM; in assay [4] it was 200 to 1000 nM.
Consider `C=CC(=O)N1CCC(c2n[nH]c3ncnc(Nc4ccc(Oc5nc(-c6ccc(C(F)(F)F)nc6)cs5)cc4F)c23)CC1` [Compound 188, 1-(4-(4-((2-fluoro-4-((4-(6-(trifluoromethyl)pyridin-3-yl)thiazol-2-yl)oxy)phenyl)amino)-1H-pyrazolo[3,4-d]pyrimidin-3-yl)piperidin-1-yl)prop-2-en-1-one], for which the GI50 was 200 to 1000 nM in assay [1], 50 to 200 nM in assay [2], above 1000 nM in assay [3] and 50 to 200 nM in assay [4].
Turning to `C=CC(=O)N1CCC(c2n[nH]c3ncnc(Nc4ccc(Oc5nc(-c6cnc(C)c(F)c6)cs5)cc4F)c23)CC1` [Compound 190, 1-[4-[4-[2-fluoro-4-[4-(5-fluoro-6-methyl-3-pyridyl)thiazol-2-yl]oxy-anilino]-1H-pyrazolo[3,4-d]pyrimidin-3-yl]-1-piperidyl]prop-2-en-1-one], the GI50 was 200 to 1000 nM in assay [1], 50 to 200 nM in assay [2], above 1000 nM in assay [3] and 50 to 200 nM in assay [4].
As to `C=CC(=O)N1CCC(c2n[nH]c3ncnc(Nc4ccc(Oc5nc(-c6ccnn6C)cs5)cc4F)c23)CC1` [Compound 191, 1-(4-(4-((2-fluoro-4-((4-(1-methyl-1H-pyrazol-5-yl)thiazol-2-yl)oxy)phenyl)amino)-1H-pyrazolo[3,4-d]pyrimidin-3-yl)piperidin-1-yl)prop-2-en-1-one], the concentration for 50% growth inhibition (GI50) in assay [1] is 200 to 1000 nM; in assay [2], 200 to 1000 nM; in assay [3] it was above 1000 nM; in assay [4] it was 200 to 1000 nM.
Consider `C=CC(=O)N1CCC(c2n[nH]c3ncnc(Nc4ccc(OCc5nnsc5Cl)cc4F)c23)CC1` [Compound 195, 1-(4-(4-((4-((5-chloro-1,2,3-thiadiazol-4-yl)methoxy)-2-fluorophenyl)amino)-1H-pyrazolo[3,4-d]pyrimidin-3-yl)piperidin-1-yl)prop-2-en-1-one], for which the GI50 in assay [1] was below 50 nM; in assay [2], 50 to 200 nM; in assay [3] it was above 1000 nM; in assay [4], below 50 nM.
Take `C=CC(=O)N1CCC(c2ccn3ncnc(Nc4ccc(Oc5ccnc(N6CC7C(C6)C7(F)F)c5)cc4F)c23)CC1` (stereo not drawn) [Compound 200, 1-(4-(4-((4-((2-(6,6-difluoro-3-azabicyclo[3.1.0]hexan-3-yl)pyridin-4-yl)oxy)-2-fluorophenyl)amino)pyrrolo[2,1-f][1,2,4]triazin-5-yl)piperidin-1-yl)prop-2-en-1-one]: the concentration for 50% growth inhibition (GI50) in assay [1] is 200 to 1000 nM; in assay [2], 50 to 200 nM; in assay [3], above 1000 nM; in assay [4], 50 to 200 nM.
On to `C=CC(=O)N1CCC(c2ccn3ncnc(Nc4ccc(Oc5ccnc(N6CC(C)(OC)C6)c5)cc4F)c23)CC1` [Compound 203, 1-(4-(4-((2-fluoro-4-((2-(3-methoxy-3-methylazetidin-1-yl)pyridin-4-yl)oxy)phenyl)amino)pyrrolo[2,1-f][1,2,4]triazin-5-yl)piperidin-1-yl)prop-2-en-1-one], for which the 50% growth inhibitory concentration (GI50) in assay [1] was above 1000 nM; in assay [2], 50 to 200 nM; in assay [3], above 1000 nM; in assay [4], 200 to 1000 nM.
For the compound `C=CC(=O)N1CCC(c2ccn3ncnc(Nc4ccc(Oc5ccnc(N6CCC(C#N)C6)c5)cc4F)c23)CC1` (stereo not drawn) [Compound 204, 1-(4-(4-((5-(1-acryloylpiperidin-4-yl)pyrrolo[2,1-f][1,2,4]triazin-4-yl)amino)-3-fluorophenoxy)pyridin-2-yl)pyrrolidine-3-carbonitrile], the 50% growth inhibitory concentration (GI50) in assay [1] is above 1000 nM; in assay [2], 50 to 200 nM; in assay [3], above 1000 nM; in assay [4] it was 50 to 200 nM.
On to `C=CC(=O)N1CCC(c2ccn3ncnc(Nc4ccc(Oc5ccnc(N6CC7(CCOCC7)C6)c5)cc4F)c23)CC1` [Compound 205, 1-(4-(4-((4-((2-(7-oxa-2-azaspiro[3.5]nonan-2-yl)pyridin-4-yl)oxy)-2-fluorophenyl)amino)pyrrolo[2,1-f][1,2,4]triazin-5-yl)piperidin-1-yl)prop-2-en-1-one], for which the GI50 in assay [1] is above 1000 nM; in assay [2], 50 to 200 nM; in assay [3], above 1000 nM; in assay [4], 200 to 1000 nM.
Consider `C=CC(=O)N1CCC(c2ccn3ncnc(Nc4ccc(Oc5nc(-c6cnc(C)c(F)c6)cs5)cc4F)c23)CC1` [Compound 206, 1-[4-[4-[2-fluoro-4-[4-(5-fluoro-6-methyl-3-pyridyl)thiazol-2-yl]oxy-anilino]pyrrolo[2,1-f][1,2,4]triazin-5-yl]-1-piperidyl]prop-2-en-1-one], for which the concentration for 50% growth inhibition (GI50) in assay [1] is above 1000 nM; in assay [2] it was 50 to 200 nM; in assay [3] it was above 1000 nM; in assay [4], 200 to 1000 nM.
